Earlier results on one molecule are cited in patent US20210260201A1, “EXTRACELLULAR VESICLES FOR THE TREATMENT AND PREVENTION OF INFECTIONS AND OTHER DISEASES” (PHYSIS BIOTECHNOLOGIES, LLC, priority 2020, published 2021).

Like-named read-outs stand apart in the source and are kept apart here.

In the case of `C=C(C)[C@@H]1CCC(C)=C[C@H]1c1c(O)cc(CCCCC)cc1O` [CBD, cannabidiol], the bioavailability is 34-46% (intranasal), 6-20% (oral (edibles)) and 13-19% (sublingual (tinctures)).
